Results on 3 compounds are retold here after ChEMBL document CHEMBL3621073, “Bile acid amphiphiles with tunable head groups as highly selective antitubercular agents” (Medchemcomm, 2014).

The test system of data set [1] is Staphylococcus aureus. As to the kind of experiment: Antibacterial activity against Staphylococcus aureus MTCC 737 measured after 1 to 24 hrs by microplate reader assay. The format is functional, organism-based.
The test system of data set [2] is Mycolicibacterium smegmatis. As to the kind of experiment: Antimycobacterial activity against Mycobacterium smegmatis str. MC2 155 after 2 days by inverted microscopic analysis. The data set is classed as functional. The note with it: str. MC2 155, 48 h.
Data set [3] deals with Mycobacterium tuberculosis. In words: Antimycobacterial activity against Mycobacterium tuberculosis H37Rv after 14 days by inverted microscopic analysis. The format is functional. The note with it: 336 h.
Data set [4] can be described thus: Therapeutic index, ratio of MHC50 for chicken RBC to MIC99 for Mycobacterium tuberculosis H37Rv. The note with it: chicken red blood cells, read-out: TI.
Data set [5] can be described thus: Therapeutic index, ratio of MHC50 for sheep RBC to MIC99 for Mycobacterium tuberculosis H37Rv. The note with it: sheep red blood cells, read-out: TI.
In data set [6] the test system is Escherichia coli. As to the kind of experiment: Antibacterial activity against Escherichia coli MTCC 443 after 12 hrs by microplate reader assay. The data set is classed as functional. The note with it: MTCC 443, 12 h.
For data set [7], the system named is Staphylococcus aureus. In words: Antibacterial activity against Staphylococcus aureus MTCC 737 after 12 hrs by microplate reader assay. The data set is classed as functional. The note with it: MTCC 737, 12 h.
Data set [8] deals with A549. As to the kind of experiment: Cytotoxicity against human A549 cells after 48 hrs by MTT assay. The data set is classed as cell-based. The note with it: A549, 48 h. In general terms: Formazan colour is commonly taken as a measure of viable cells.
A further data set relates to THP-1. As to the kind of experiment: Cytotoxicity against human THP1 cells after 48 hrs by MTT assay. The format is cell-based. The note with it: THP-1, 48 h.
For data set [9], the system named is A549. In words: Cytotoxicity against human A549 cells assessed as effect on cell cycle phase at 100 uM by propidium iodide staining-based flow cytometry. The note with it: a549, 100 µM.
In data set [10] the test system is Escherichia coli. In words: Antibacterial activity against Escherichia coli MTCC 443 measured after 1 to 24 hrs by microplate reader assay. The format is functional, organism-based.
In data set [11] the test system is Mycolicibacterium smegmatis. In words: Antimycobacterial activity against Mycobacterium smegmatis str. MC2 155 after 6 to 96 hrs by inverted microscopic analysis relative to control. The data set is classed as functional.
Data set [12] concerns Escherichia coli. As to the kind of experiment: Antibacterial activity against Escherichia coli MTCC 443 assessed as effect on membrane permeabilization by using propidium iodide dye. The data set is classed as functional, organism-based.
The test system of data set [13] is Staphylococcus aureus. In words: Antibacterial activity against Staphylococcus aureus MTCC 737 assessed as effect on membrane permeabilization by using propidium iodide dye. The format is functional, organism-based.
In data set [14] the test system is Escherichia coli. As to the kind of experiment: Antibacterial activity against Escherichia coli MTCC 443 assessed as membrane surface indentations by atomic force microscopic analysis. The format is functional, organism-based.
Data set [15] relates to Escherichia coli. As to the kind of experiment: Antibacterial activity against Escherichia coli MTCC 443 assessed as micelle-like structures by atomic force microscopic analysis. The data set is classed as functional, organism-based.
Data set [16] has as its system Escherichia coli. As to the kind of experiment: Antibacterial activity against Escherichia coli MTCC 443 assessed as leakage of large amount of cytoplasmic contents by atomic force microscopic analysis. The format is functional, organism-based.
The subject of data set [17] is Escherichia coli. As to the kind of experiment: Antibacterial activity against Escherichia coli MTCC 443 after 12 hrs by microplate reader assay in presence of EDTA. The data set is classed as functional, organism-based.
For data set [18], the system named is Staphylococcus aureus. As to the kind of experiment: Antibacterial activity against Staphylococcus aureus MTCC 737 after 12 hrs by microplate reader assay in presence of EDTA. The data set is classed as functional, organism-based.
Data set [19] deals with Lipid bilayer. In words: Binding affinity to PE:PG:LPS membrane assessed as dehydration of membrane after 4 hrs.
Data set [20] in a line: Binding affinity to PE:PG membrane assessed as dehydration of membrane after 4 hrs.
Data set [21] concerns Lipid bilayer. In words: Binding affinity to PE:PG:TDM membrane assessed as dehydration of membrane after 4 hrs.
Data set [22] deals with Lipid bilayer. In words: Binding affinity to PE:PG:LPS membrane assessed as membrane fluidity after 4 hrs.
The nature of data set [23]: Binding affinity to PE:PG membrane assessed as membrane fluidity after 4 hrs.
Data set [24] concerns Lipid bilayer. As to the kind of experiment: Binding affinity to PE:PG:TDM membrane assessed as membrane fluidity after 4 hrs.
Data set [25] relates to Escherichia coli. As to the kind of experiment: Antibacterial activity against Escherichia coli MTCC 443 at 8 to 128 uM measured after 1 to 24 hrs by microplate reader assay. The data set is classed as functional, organism-based.
Data set [26] has as its system Mycolicibacterium smegmatis. As to the kind of experiment: Antimycobacterial activity against Mycobacterium smegmatis str. MC2 155 after 2 days by inverted microscopic analysis in presence of plasma. The data set is classed as functional. The note with it: str. MC2 155, 48 h.
Data set [27] relates to Mycobacterium tuberculosis. As to the kind of experiment: Antimycobacterial activity against Mycobacterium tuberculosis H37Rv after 14 days by inverted microscopic analysis in presence of plasma. The format is functional. The note with it: 336 h.
Data set [28] relates to Staphylococcus aureus. In words: Antibacterial activity against Staphylococcus aureus MTCC 737 at 16 to 256 uM measured after 1 to 24 hrs by microplate reader assay. The format is functional, organism-based.
Data set [29] relates to Mycolicibacterium smegmatis. As to the kind of experiment: Antimycobacterial activity against Mycobacterium smegmatis str. MC2 155 assessed as effect on […] by using propidium iodide dye. The data set is classed as functional, organism-based.
In data set [30] the test system is Escherichia coli. As to the kind of experiment: Antibacterial activity against Escherichia coli MTCC 443 assessed as effect membrane morphology by atomic force microscopic analysis. The format is functional, organism-based.
In data set [31] the test system is Escherichia coli. As to the kind of experiment: Antibacterial activity against Escherichia coli MTCC 443 assessed as effect membrane topology by atomic force microscopic analysis. The format is functional, organism-based.

Calls of active or inactive are those of the source. No cut-off for these calls is given here.

By MIC99 is commonly meant an inhibitory concentration at the 99% level, which refers to growth in some studies and to a panel of isolates in others. By IC50 is commonly meant the concentration at which inhibition is half-maximal. Higher therefore signals weaker potency in that assay.

For the compound `COC(=O)CC[C@@H](C)[C@H]1CC[C@H]2[C@@H]3[C@H](OC(=O)CN)C[C@@H]4C[C@H](OC(=O)CN)CC[C@]4(C)[C@H]3C[C@H](OC(=O)CN)[C@]12C.Cl.Cl.Cl`, the Activity result in the data set on Staphylococcus aureus [1] was “Dose-dependent effect”; in the data set with A549 [9], “Non-toxic”; in the data set with Escherichia coli [10], “Dose-dependent effect”. The MIC99 in [2] was > 50 µM; in data set [3], > 50 µM; in the data set with Escherichia coli [6] it was 32 µM; in the data set on Staphylococcus aureus [7], 64 µM. Further, the selectivity ratio in [4] and in data set [5] was < 20 throughout. Moreover, the IC50 stood at 75.9 µM in the data set on A549 [8] and 38.2 µM in the data set with THP-1. The outcome (in data set [11]; in the data set with Lipid bilayer [22]; in data set [23]; in the data set on Lipid bilayer [24]) was inactive. The outcome in the data set on Escherichia coli [12], in the data set with Staphylococcus aureus [13], in the data set on Escherichia coli [14], with Escherichia coli [15], with Escherichia coli [16] and in the data set on Escherichia coli [17] was Active. The outcome (in the data set with Staphylococcus aureus [18]; in the data set with Lipid bilayer [19]; in [20]; in the data set on Lipid bilayer [21]) was Active.

Consider `COC(=O)CC[C@@H](C)[C@H]1CC[C@H]2[C@@H]3[C@H](OC(=O)C[n+]4ccc(N(C)C)cc4)C[C@@H]4C[C@H](OC(=O)C[n+]5ccc(N(C)C)cc5)CC[C@]4(C)[C@H]3C[C@H](OC(=O)C[n+]3ccc(N(C)C)cc3)[C@]12C.[Cl-].[Cl-].[Cl-]`, for which the result in the data set with Escherichia coli [25], in the data set with Staphylococcus aureus [28], with Escherichia coli [30], in the data set on Escherichia coli [31], with Lipid bilayer [21] and with Lipid bilayer [22] was inactive. In addition, in data set [23], the result was inactive. For the same compound, the MIC99 in data set [2] is 1.56 µM; in data set [3], 6.25 µM; in data set [26], 6.25 µM; in [27], 6.25 µM; with Escherichia coli [6], > 512 µM; against Staphylococcus aureus [7], 256 µM. The selectivity ratio in data set [4] and in data set [5] was > 160 in each case. The half-maximal inhibitory concentration (IC50) with A549 [8] and in the data set on THP-1 was > 200 µM each time. Moreover, the Activity result in the data set with A549 [9] was “Non-toxic”. Moreover, in data set [11], the “fold change (FC)” value was determined as 10000. Moreover, the result (in [29]; with Escherichia coli [17]; with Staphylococcus aureus [18]; with Lipid bilayer [24]) was Active.

Consider `COC(=O)CC[C@@H](C)[C@H]1CC[C@H]2[C@@H]3[C@H](OC(=O)C[N+]4(C)CCCCC4)C[C@@H]4C[C@H](OC(=O)C[N+]5(C)CCCCC5)CC[C@]4(C)[C@H]3C[C@H](OC(=O)C[N+]3(C)CCCCC3)[C@]12C.[Cl-].[Cl-].[Cl-]`, for which the MIC99 in data set [2] was 6.25 µM; in data set [3], 25 µM; against Escherichia coli [6], > 512 µM; against Staphylococcus aureus [7], 512 µM. Also, the selectivity ratio in data set [4] and in [5] was > 40 each time. The half-maximal inhibitory concentration (IC50) in the data set on A549 [8] and with THP-1 was > 200 µM each time. Also, the Activity entry with A549 [9] was “Non-toxic”.
